For one assay, the system named is human SAA1 promoter. In words: SAA1 promoter luciferase reporter construct in HepG2 cells. In kind it is cell-based. Particulars: HepG2, pGL2-SAA1pt. An excerpt: The pGL2-SAA1pt construct was generated as follows. The proximal 3.1 kb of genomic sequence upstream of the human SAA1 transcription start site plus the full 37 bases of 5′UTR was amplified by polymerase chain reaction (PCR) from human genomic DNA (Roche Biomolecular) using forward and reverse primers, HSAA1PF (5′-GAATTCACGCGTTT-[…]-3′) (SEQ ID NO:10) and HSAAPR (5′-[…]-GCTGAGCTGCGGG-3′) (SEQ ID NO:11), that incorporate Mlu1 and Nco1 restriction sites, respectively. The product was digested with Mlu1 and Nco1 and directionally cloned into a pGL2 vector which had been modified to include an Nco1 site at the start of the luciferase coding sequence and contains the human SAA2 3′UTR (Longley et al. (1999) J. Immunol. 163:4537-45).
Constructs pGL2-SAA1[0.7] and pGL2-SAA1[0.25] containing 704 and 233 bases of promoter sequence respectively, were generated from pGL2-SAA1pt by PCR using the forward primers 5′-[…]-CAGCCTTGACC-3′ (SEQ ID NO:12) and 5′-GAATTCACGCGTGGTCT-CCTGCCTG-3′ (SEQ ID NO:13) respectively, and the reverse primer HSAAPR.
Human HepG2 hepatoma cells (ATCC) were cultured in DMEM containing 10% FCS, gentamycin, sodium pyruvate and non-essential amino acids (Gibco BRL). Cells were seeded into 24 well plates 24 hours prior to transfection using FuGENE (Roche Biomolecular) as described in Jensen et al. (2000) J. Immunol. 164:5277-86. Cells transfected with SAA promoter luciferase reporter constructs and renilla control plasmid, were incubated for 16 to 20 hours before replacement of culture medium with fresh medium alone or fresh medium containing 10 ng/ml cytokines and/or dexamethasone and/or RU486 (Mifepristone). IL-1 was purchased from Peprotech. IL-6 was obtained from AstraZeneca. Dexamethasone and RU486 were obtained from Sigma.
(§1) Cells were harvested at various times post-treatment, washed in PBS and resuspended in Passive Lysis Buffer (Promega, Madison, Wis.). […] Each treatment was carried out in triplicate and the mean ratio of luciferase to renilla activity and standard deviations were calculated. […]
On the technique in general: A reporter such as luciferase makes a cellular process visible.

In a further assay the test system is human SAA2 promoter. In words: SAA2 promoter luciferase reporter construct in HepG2 cells. In kind it is cell-based. Particulars: HepG2, pGL2-SAA2pt, cytokines 10 ng/ml.
Description: The pGL2-SAA2pt construct, which contains 1.2 kb of the human SAA2 promoter upstream of a luciferase reporter was generated as follows. A 1196 bp of the promoter region and 22 bp of the first exon of the human acute phase SAA2 gene was amplified by PCR with the introduction of MluI and XhoI restriction sites at the 5′ and 3′ ends respectively (5′ oligonucleotide: 5′ […]-TACTTCCT-′3′ (SEQ ID NO: 8); 3′ oligonucleotide: 5′-[…]-[…]-3′ (SEQ ID NO:9). The PCR product was subsequently cloned into the multiple-cloning site of the pGL2-Basic vector (Promega, Madison, Wis., USA) which is located upstream of a luciferase reporter gene.
Constructs pGL2-SAA2[0.7] and pGL2-SAA2[0.25] containing 700 and 239 bases of promoter sequence respectively, were generated from pGL2-SAA2pt by PCR using the forward primers 5′-[…]-3′ (SEQ ID NO:14) and 5′-[…]-3′ (SEQ ID NO:15) respectively, and the reverse primer HSAAPR.
Human HepG2 hepatoma cells (ATCC) were cultured in DMEM containing 10% FCS, gentamycin, sodium pyruvate and non-essential amino acids (Gibco BRL). […]
as §1

With `CC#C[C@]1(O)CC[C@H]2[C@@H]3CCC4=CC(=O)CCC4=C3[C@@H](c3ccc(N(C)C)cc3)C[C@@]21C` [RU486, Mifepristone], the “effect on cytokine driven SAA1 promoter transcriptional activity” value with human SAA1 promoter (10 nM RU486 alone with IL-1 plus IL-6, 4 h) is on record as “no measurable effect”. Further, in the assay on human SAA1 promoter (10 nM RU486 with 100 nM dexamethasone and IL-1 plus IL-6, 4 h), the “block of dexamethasone enhancement of cytokine induction of the SAA1 promoter” value is reported as “completely blocked”.

In the case of `C[C@@H]1C[C@H]2[C@@H]3CCC4=CC(=O)C=C[C@]4(C)[C@@]3(F)[C@@H](O)C[C@]2(C)[C@@]1(O)C(=O)CO` [dexamethasone], the “effect on the SAA1 promoter” value in the assay with human SAA1 promoter (dexamethasone alone (50 nM), 3, 6, 9, 24 h) is “no effect”.

With “IL-6: cytokine, obtained from AstraZeneca”, the “kinetic profile of cytokine driven SAA2 promoter readout” value with human SAA2 promoter (3, 6, 9, 24 h) was “highest at 3 hours and decreased through 24 hours”. Besides, the “induction of the SAA2 promoter” value with human SAA2 promoter (3-24 h) was “moderately induced”.
